Source: patent US10899737B2, “Piperazine carbamates and methods of making and using same” (Lundbeck La Jolla Research Center, Inc., priority 2016, dated 2021)

What was measured:
MAGL [1] = biological target: T1, MAGL (Mus musculus, UniProt O35678); assay: In vitro competitive activity-based protein profiling (mouse), MAGL; format: biochemical; conditions: for inhibition at 1 µM: 1 μM inhibitor, mouse brain membrane fraction or cell lysates, read-out: MAGL % inh. 1 μM (mouse); for IC50: mouse proteome
T1 construct: Proteomes (mouse brain membrane fraction or cell lysates); from tissue; host or cells: mouse brain membrane fraction or cell lysates
T1 sequence (O35678 1-303): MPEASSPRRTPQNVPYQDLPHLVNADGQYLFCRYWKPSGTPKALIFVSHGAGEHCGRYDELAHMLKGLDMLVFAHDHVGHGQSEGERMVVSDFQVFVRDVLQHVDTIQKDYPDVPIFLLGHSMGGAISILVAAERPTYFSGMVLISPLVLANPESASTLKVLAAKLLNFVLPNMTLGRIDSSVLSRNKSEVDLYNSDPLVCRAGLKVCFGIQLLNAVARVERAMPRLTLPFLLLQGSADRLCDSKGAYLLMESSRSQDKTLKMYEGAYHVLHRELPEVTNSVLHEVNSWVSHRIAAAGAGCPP
Method in brief: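 Mouse brain membrane fraction or cell lysate proteomes (50 μL, 1.0 mg/mL total protein) were preincubated with inhibitors at varying concentrations for 30 min at 37° C. FP-Rh (1.0 μL, 50 μM in DMSO) was then added for a further 30 min at 37° C. Samples were quenched with 4× SDS loading buffer and resolved by SDS-PAGE. MAGL activity was quantified from fluorescent gel band intensity using ImageJ 1.49 k.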

ABHD6 [2] = biological target: T2, ABHD6 (Homo sapiens, UniProt Q9BV23); assay: In vitro competitive activity-based protein profiling (human), ABHD6; format: biochemical; conditions: human PC3
T2 construct: Proteomes (human prefrontal cortex or cell membrane fractions); endogenous in cells; human prefrontal cortex
T2 sequence (Q9BV23 1-337): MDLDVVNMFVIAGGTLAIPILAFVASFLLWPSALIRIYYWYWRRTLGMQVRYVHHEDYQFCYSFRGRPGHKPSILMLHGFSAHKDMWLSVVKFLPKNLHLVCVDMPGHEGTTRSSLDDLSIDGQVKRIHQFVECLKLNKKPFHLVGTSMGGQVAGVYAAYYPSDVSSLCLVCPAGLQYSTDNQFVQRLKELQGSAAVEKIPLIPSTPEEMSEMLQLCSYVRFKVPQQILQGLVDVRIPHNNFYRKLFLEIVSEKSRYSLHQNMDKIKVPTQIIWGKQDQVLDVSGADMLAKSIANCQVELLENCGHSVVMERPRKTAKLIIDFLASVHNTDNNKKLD
Method in brief: (§1)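 Human prefrontal cortex or cell membrane proteomes (1.0-2.0 mg/mL protein) preincubated 30 min at 37° C with inhibitor, then labeled 30 min RT with FP-Rh or JW912 probe. After SDS-PAGE, activity taken from fluorescent band intensity for each enzyme.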

MAGL [3] = biological target: T3, MAGL (Homo sapiens, UniProt Q99685); assay: In vitro competitive activity-based protein profiling (human), MAGL; format: biochemical; conditions: for inhibition at 1 µM: 1 μM inhibitor, human proteome, 30 min preincubation at 37° C, read-out: MAGL % inh. 1 μM (human); for IC50: human PC3
T3 construct: Proteomes (human prefrontal cortex or cell membrane fractions); from tissue
T3 sequence (Q99685 1-303): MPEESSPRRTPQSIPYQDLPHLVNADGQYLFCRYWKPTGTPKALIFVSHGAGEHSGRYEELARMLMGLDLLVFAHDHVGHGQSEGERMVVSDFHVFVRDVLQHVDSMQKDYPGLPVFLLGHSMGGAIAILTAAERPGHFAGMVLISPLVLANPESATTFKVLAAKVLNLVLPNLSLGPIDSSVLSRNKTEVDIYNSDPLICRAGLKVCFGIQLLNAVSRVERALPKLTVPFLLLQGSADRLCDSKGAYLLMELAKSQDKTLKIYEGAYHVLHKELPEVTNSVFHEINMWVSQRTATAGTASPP
Method in brief: as §1

ABHD6 [4] = biological target: T4, ABHD6 (Mus musculus, UniProt Q8R2Y0); assay: In vitro competitive activity-based protein profiling (mouse), ABHD6; format: biochemical; conditions: 1 μM inhibitor, mouse brain membrane fraction or cell lysates; read-out: ABHD6 % inh. 1 μM (mouse)
T4 construct: Proteomes (mouse brain membrane fraction or cell lysates); from tissue; host or cells: mouse brain membrane fraction or cell lysates
T4 sequence (Q8R2Y0 1-336): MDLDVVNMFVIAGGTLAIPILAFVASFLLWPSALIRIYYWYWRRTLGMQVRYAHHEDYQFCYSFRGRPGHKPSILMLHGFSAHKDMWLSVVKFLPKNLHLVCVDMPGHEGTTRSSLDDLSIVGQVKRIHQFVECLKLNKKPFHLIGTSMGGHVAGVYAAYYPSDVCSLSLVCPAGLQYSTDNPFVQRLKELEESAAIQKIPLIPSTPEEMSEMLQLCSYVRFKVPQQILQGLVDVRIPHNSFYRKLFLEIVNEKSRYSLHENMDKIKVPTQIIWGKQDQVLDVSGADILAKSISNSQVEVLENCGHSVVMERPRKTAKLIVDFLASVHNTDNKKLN
Method in brief: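 Mouse brain membrane proteome or cell lysate (1.0 mg/mL protein) preincubated 30 min at 37 °C with inhibitor, then labelled 30 min at 37 °C with FP-rhodamine probe. Remaining MAGL and ABHD6 activity quantified by in-gel fluorescence band intensity after SDS-PAGE; values are % inhibition at 1 μM.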

MAGL [5] = biological target: T1, MAGL; assay: Mouse brain proteomes from inhibitor treated mice, MAGL inhibition; format: in vivo; conditions: 5 mg/kg oral gavage, C57Bl/6J mouse brain, 4 h following administration; read-out: MAGL % inh. 5 mg/kg (mouse)
Description: Preparation of Mouse Brain Proteomes from Inhibitor Treated Mice.
Inhibitors were administered to wild-type C57Bl/6J by oral gavage in a vehicle of polyethylene glycol. Each animal was sacrificed 4 h following administration and brain proteomes were prepared and analyzed according to previously established methods (See Niphakis, M. J., et al. (2011) ACS Chem. Neurosci. and Long, J. Z., et al. Nat. Chem. Biol. 5:37-44).

O=C(O)CN1CC2(CCN(c3cc(C(F)(F)F)ccc3CN3CCN(C(=O)OC(C(F)(F)F)C(F)(F)F)CC3)C2)C1 [Example 22, 2-(6-(2-((4-(((1,1,1,3,3,3-Hexafluoropropan-2-yl)oxy)carbonyl)piperazin-1-yl)methyl)-5-(trifluoromethyl)phenyl)-2,6-diazaspiro[3.4]octan-2-yl)acetic Acid]
inhibition at 1 µM (MAGL [1]): ≥ 75% | IC50 (ABHD6 [2]): 1 to 10 µM | inhibition at 1 µM (MAGL [3]): ≥ 75% | IC50 (MAGL [3]): ≤ 0.1 µM | inhibition at 1 µM (ABHD6 [4]): 0 to 25% | inhibition at 5 mg/kg (MAGL [5]): 0 to 25%

O=C(O)CN1CCC2(C1)CN(c1cc(C(F)(F)F)ccc1CN1CCN(C(=O)OC(C(F)(F)F)C(F)(F)F)CC1)C2 [Example 23, 2-(2-(2-((4-(((1,1,1,3,3,3-Hexafluoropropan-2-yl)oxy)carbonyl)piperazin-1-yl)methyl)-5-(trifluoromethyl)phenyl)-2,6-diazaspiro[3.4]octan-6-yl)acetic Acid]
inhibition at 1 µM (MAGL [1]): ≥ 75% | IC50 (ABHD6 [2]): 1 to 10 µM | inhibition at 1 µM (MAGL [3]): ≥ 75% | IC50 (MAGL [3]): ≤ 0.1 µM | inhibition at 1 µM (ABHD6 [4]): 0 to 25% | inhibition at 5 mg/kg (MAGL [5]): 0 to 25%

O=C(O)CN1CCCC12CN(c1cc(C(F)(F)F)ccc1CN1CCN(C(=O)OC(C(F)(F)F)C(F)(F)F)CC1)C2 [Example 24, 2-(2-(2-((4-(((1,1,1,3,3,3-Hexafluoropropan-2-yl)oxy)carbonyl)piperazin-1-yl)methyl)-5-(trifluoromethyl)phenyl)-2,5-diazaspiro[3.4]octan-5-yl)acetic Acid]
inhibition at 1 µM (MAGL [1]): ≥ 75% | IC50 (MAGL [1]): ≤ 0.1 µM | IC50 (ABHD6 [2]): 1 to 10 µM | inhibition at 1 µM (MAGL [3]): ≥ 75% | IC50 (MAGL [3]): ≤ 0.1 µM | inhibition at 1 µM (ABHD6 [4]): 0 to 25% | inhibition at 5 mg/kg (MAGL [5]): ≥ 75%

O=C(O)CN1CC2CC1CN2c1cc(C(F)(F)F)ccc1CN1CCN(C(=O)OC(C(F)(F)F)C(F)(F)F)CC1 (stereo not shown) [Example 25, 2-(5-(2-((4-(((1,1,1,3,3,3-Hexafluoropropan-2-yl)oxy)carbonyl)piperazin-1-yl)methyl)-5-(trifluoromethyl)phenyl)-2,5-diazabicyclo[2.2.1]heptan-2-yl)acetic Acid]
inhibition at 1 µM (MAGL [1]): ≥ 75% | IC50 (ABHD6 [2]): 1 to 10 µM | inhibition at 1 µM (MAGL [3]): ≥ 75% | IC50 (MAGL [3]): ≤ 0.1 µM | inhibition at 1 µM (ABHD6 [4]): 0 to 25% | inhibition at 5 mg/kg (MAGL [5]): 0 to 25%

O=C(OC(C(F)(F)F)C(F)(F)F)N1CCN(Cc2ccc(Cl)cc2C2(C(=O)O)CCCC2)CC1 [Example 26, 1-(5-Chloro-2-((4-(((1,1,1,3,3,3-hexafluoropropan-2-yl)oxy)carbonyl)piperazin-1-yl)methyl)phenyl)cyclopentane-1-carboxylic Acid]
inhibition at 1 µM (MAGL [1]): ≥ 75% | IC50 (ABHD6 [2]): 1 to 10 µM | inhibition at 1 µM (MAGL [3]): ≥ 75% | IC50 (MAGL [3]): ≤ 0.1 µM | inhibition at 1 µM (ABHD6 [4]): 0 to 25% | inhibition at 5 mg/kg (MAGL [5]): ≥ 75%

O=C(OC(C(F)(F)F)C(F)(F)F)N1CCN(Cc2ccc(C(F)F)cc2C2(C(=O)O)CCCC2)CC1 [Example 27, 1-(5-(Difluoromethyl)-2-((4-(((1,1,1,3,3,3-hexafluoropropan-2-yl)oxy)carbonyl)piperazin-1-yl)methyl)phenyl)cyclopentane-1-carboxylic Acid]
inhibition at 1 µM (MAGL [1]): ≥ 75% | IC50 (ABHD6 [2]): 1 to 10 µM | inhibition at 1 µM (MAGL [3]): ≥ 75% | IC50 (MAGL [3]): ≤ 0.1 µM | inhibition at 1 µM (ABHD6 [4]): 0 to 25% | inhibition at 5 mg/kg (MAGL [5]): ≥ 75%

O=C(O)CN1CCC(c2cc(C(F)(F)F)ccc2CN2CCN(C(=O)OC(C(F)(F)F)C(F)(F)F)CC2)CC1 [Example 31, 2-(4-(2-((4-(((1,1,1,3,3,3-Hexafluoropropan-2-yl)oxy)carbonyl)piperazin-1-yl)methyl)-5-(trifluoromethyl)phenyl)piperidin-1-yl)acetic Acid]
inhibition at 1 µM (MAGL [1]): ≥ 75% | IC50 (ABHD6 [2]): 1 to 10 µM | inhibition at 1 µM (MAGL [3]): ≥ 75% | IC50 (MAGL [3]): 0.1 to 1 µM | inhibition at 1 µM (ABHD6 [4]): 0 to 25% | inhibition at 5 mg/kg (MAGL [5]): 0 to 25%

O=C(O)C1CCN(C(=O)c2cc(C(F)(F)F)ccc2CN2CCN(C(=O)OC(C(F)(F)F)C(F)(F)F)CC2)CC1 [Example 35, 1-(2-((4-(((1,1,1,3,3,3-Hexafluoropropan-2-yl)oxy)carbonyl)piperazin-1-yl)methyl)-5-(trifluoromethyl)benzoyl)piperidine-4-carboxylic Acid]
inhibition at 1 µM (MAGL [1]): ≥ 75% | IC50 (MAGL [1]): 0.1 to 1 µM | IC50 (ABHD6 [2]): 1 to 10 µM | inhibition at 1 µM (MAGL [3]): ≥ 75% | IC50 (MAGL [3]): 0.1 to 1 µM | inhibition at 1 µM (ABHD6 [4]): 0 to 25% | inhibition at 5 mg/kg (MAGL [5]): 0 to 25%

O=C(OC(C(F)(F)F)C(F)(F)F)N1CCN(Cc2ccccc2C2(C(=O)O)CCCC2)CC1 [Example 36, 1-(2-((4-(((1,1,1,3,3,3-hexafluoropropan-2-yl)oxy)carbonyl)piperazin-1-yl)methyl)phenyl)cyclopentane-1-carboxylic acid]
inhibition at 1 µM (MAGL [1]): ≥ 75% | IC50 (ABHD6 [2]): 1 to 10 µM | inhibition at 1 µM (MAGL [3]): ≥ 75% | IC50 (MAGL [3]): ≤ 0.1 µM | inhibition at 1 µM (ABHD6 [4]): 0 to 25% | inhibition at 5 mg/kg (MAGL [5]): ≥ 75%

O=C(OC(C(F)(F)F)C(F)(F)F)N1CCN(Cc2ccc(F)cc2C2(C(=O)O)CCCC2)CC1 [Example 40, 1-(5-fluoro-2-((4-(((1,1,1,3,3,3-hexafluoropropan-2-yl)oxy)carbonyl)piperazin-1-yl)methyl)phenyl)cyclopentane-1-carboxylic acid]
inhibition at 1 µM (MAGL [1]): ≥ 75% | IC50 (ABHD6 [2]): 1 to 10 µM | inhibition at 1 µM (MAGL [3]): ≥ 75% | IC50 (MAGL [3]): ≤ 0.1 µM | inhibition at 1 µM (ABHD6 [4]): 0 to 25% | inhibition at 5 mg/kg (MAGL [5]): ≥ 75%

O=C(O)CC1CCN(c2cc(C(F)(F)F)ccc2CN2CCN(C(=O)OC(C(F)(F)F)C(F)(F)F)CC2)CC1 [Example 43, 2-(1-(2-((4-(((1,1,1,3,3,3-hexafluoropropan-2-yl)oxy)carbonyl)piperazin-1-yl)methyl)-5-(trifluoromethyl)phenyl)piperidin-4-yl)acetic acid]
inhibition at 1 µM (MAGL [1]): ≥ 75% | IC50 (ABHD6 [2]): 1 to 10 µM | inhibition at 1 µM (MAGL [3]): ≥ 75% | IC50 (MAGL [3]): ≤ 0.1 µM | inhibition at 1 µM (ABHD6 [4]): ≥ 75% | inhibition at 5 mg/kg (MAGL [5]): ≥ 75%

O=C(OC(C(F)(F)F)C(F)(F)F)N1CCN(Cc2cccc(Cl)c2C2(C(=O)O)CCCC2)CC1 [Example 44, 1-(2-chloro-6-((4-(((1,1,1,3,3,3-hexafluoropropan-2-yl)oxy)carbonyl)piperazin1-yl)methyl)phenyl)cyclopentane-1-carboxylic acid]
inhibition at 1 µM (MAGL [1]): ≥ 75% | IC50 (ABHD6 [2]): 1 to 10 µM | IC50 (MAGL [3]): ≤ 0.1 µM | inhibition at 1 µM (ABHD6 [4]): 50 to 75% | inhibition at 5 mg/kg (MAGL [5]): ≥ 75%
